# How the values were obtained:
# Test in all cases: Weeding effect in post-emergence stage
# Format in all cases: in vivo
# Conditions in all cases: level of fresh weight growth control rate
# Abutilon theophrasti = tested on: Abutilon theophrasti
# Outline: (§1)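 Compound, dissolved in acetone and diluted in water with Tween 80 plus methyl oleate EC (1.5 liter/ha), is sprayed onto 2-3 leaf potted plants. Rates span 7.5–500 g/ha. After 3 weeks of greenhouse culture, weeding effect is counted as the mean of triplicates.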
# Alopecurus japonicus = tested on: Alopecurus japonicus
# Outline: as §1
# Digitaria sanguinalis = tested on: Digitaria sanguinalis
# Outline: as §1
# Eleusine indica = tested on: Eleusine indica
# Outline: as §1
# Setaria viridis = tested on: Setaria viridis
# Outline: as §1
# Echinochloa crusgalli = tested on: Echinochloa crusgalli
# Outline: as §1
Compound,"Weeding effect in post-emergence stage, Abutilon theophrasti (Abutilon theophrasti; Dose 15 g/ha)","Weeding effect in post-emergence stage, Alopecurus japonicus (Alopecurus japonicus; Dose 15 g/ha)","Weeding effect in post-emergence stage, Digitaria sanguinalis (Digitaria sanguinalis; Dose 15 g/ha)","Weeding effect in post-emergence stage, Eleusine indica (Eleusine indica; Dose 15 g/ha)","Weeding effect in post-emergence stage, Setaria viridis (Setaria viridis; Dose 15 g/ha)","Weeding effect in post-emergence stage, Echinochloa crusgalli (Echinochloa crusgalli; Dose 15 g/ha)","Weeding effect in post-emergence stage, Abutilon theophrasti (Abutilon theophrasti; Dose 30 g/ha)","Weeding effect in post-emergence stage, Alopecurus japonicus (Alopecurus japonicus; Dose 30 g/ha)","Weeding effect in post-emergence stage, Digitaria sanguinalis (Digitaria sanguinalis; Dose 30 g/ha)","Weeding effect in post-emergence stage, Eleusine indica (Eleusine indica; Dose 30 g/ha)","Weeding effect in post-emergence stage, Setaria viridis (Setaria viridis; Dose 30 g/ha)","Weeding effect in post-emergence stage, Echinochloa crusgalli (Echinochloa crusgalli; Dose 30 g/ha)"
CC(=O)COC(=O)[C@@H](C)O/N=C/c1cc(-n2c(=O)cc(C(F)(F)F)n(C)c2=O)c(F)cc1Cl [238(R)],5 (Level 5: growth control rate is above 85%),5 (Level 5: growth control rate is above 85%),5 (Level 5: growth control rate is above 85%),5 (Level 5: growth control rate is above 85%),5 (Level 5: growth control rate is above 85%),5 (Level 5: growth control rate is above 85%),,,,,,
COC(=O)CCOC(=O)[C@@H](C)O/N=C/c1cc(-n2c(=O)cc(C(F)(F)F)n(C)c2=O)c(F)cc1Cl [240(R)],,,,,,,5 (Level 5: growth control rate is above 85%),5 (Level 5: growth control rate is above 85%),5 (Level 5: growth control rate is above 85%),5 (Level 5: growth control rate is above 85%),5 (Level 5: growth control rate is above 85%),5 (Level 5: growth control rate is above 85%)
COC(=O)C(C)OC(=O)[C@@H](C)O/N=C/c1cc(-n2c(=O)cc(C(F)(F)F)n(C)c2=O)c(F)cc1Cl (stereo partly drawn) [241(R)],,,,,,,5 (Level 5: growth control rate is above 85%),5 (Level 5: growth control rate is above 85%),5 (Level 5: growth control rate is above 85%),5 (Level 5: growth control rate is above 85%),5 (Level 5: growth control rate is above 85%),5 (Level 5: growth control rate is above 85%)
COC(=O)C(C)(C)OC(=O)[C@@H](C)O/N=C/c1cc(-n2c(=O)cc(C(F)(F)F)n(C)c2=O)c(F)cc1Cl [243(R)],5 (Level 5: growth control rate is above 85%),5 (Level 5: growth control rate is above 85%),5 (Level 5: growth control rate is above 85%),5 (Level 5: growth control rate is above 85%),5 (Level 5: growth control rate is above 85%),5 (Level 5: growth control rate is above 85%),,,,,,
COC(=O)C(OC)OC(=O)[C@@H](C)O/N=C/c1cc(-n2c(=O)cc(C(F)(F)F)n(C)c2=O)c(F)cc1Cl (stereo partly drawn) [245(R)],,,,,,,5 (Level 5: growth control rate is above 85%),5 (Level 5: growth control rate is above 85%),5 (Level 5: growth control rate is above 85%),5 (Level 5: growth control rate is above 85%),5 (Level 5: growth control rate is above 85%),5 (Level 5: growth control rate is above 85%)
C/C(=N\OC(=O)[C@@H](C)O/N=C/c1cc(-n2c(=O)cc(C(F)(F)F)n(C)c2=O)c(F)cc1Cl)C(C)C [250(R)],5 (Level 5: growth control rate is above 85%),5 (Level 5: growth control rate is above 85%),5 (Level 5: growth control rate is above 85%),5 (Level 5: growth control rate is above 85%),5 (Level 5: growth control rate is above 85%),5 (Level 5: growth control rate is above 85%),,,,,,
CCC(CC)=NOC(=O)[C@@H](C)O/N=C/c1cc(-n2c(=O)cc(C(F)(F)F)n(C)c2=O)c(F)cc1Cl [251(R)],5 (Level 5: growth control rate is above 85%),5 (Level 5: growth control rate is above 85%),5 (Level 5: growth control rate is above 85%),5 (Level 5: growth control rate is above 85%),5 (Level 5: growth control rate is above 85%),5 (Level 5: growth control rate is above 85%),,,,,,
CCO/C(C)=N/OC(=O)[C@@H](C)O/N=C/c1cc(-n2c(=O)cc(C(F)(F)F)n(C)c2=O)c(F)cc1Cl [252(R)],5 (Level 5: growth control rate is above 85%),5 (Level 5: growth control rate is above 85%),5 (Level 5: growth control rate is above 85%),5 (Level 5: growth control rate is above 85%),5 (Level 5: growth control rate is above 85%),5 (Level 5: growth control rate is above 85%),,,,,,
